Test results published in patent US11331370B2, “Combination product for the prevention of sexually transmitted infections” (priority 2014, dated 2022).

Key:
HIV-192BR014 = test: Anti-HIV combination activity in activated PBMCs, p24 ELISA, Chou-Talalay; type: cell-based; settings: PBMC, HIV-1 92BR014, p24 day 7; combination value refers to the API in bold font (GRFT); read-out: Dm, median-effect dose (IC50)
Protocol: Briefly, in order to test anti-HIV activity, activated PBMCs were treated with varying equipotent doses (based on IC50 of each API) of GRFT, ZA or GRFT+ZA at 37° C. 1 h prior to exposure to 100 TCID50 of HIV-192BR014 in the presence of the same doses of each compound or combination (triplicates). Medium-treated (virus only) cells were included as a control. Eighteen hours later the cells were washed and plated in the presence of medium with IL-2 (with the only exception of those samples treated with ZA, where ZA was replaced). This step was repeated on day 4 and the supernatants collected on day 7 to measured HIV-1 p24 levels by ELISA. […] Combination indexes (CI) were estimated using the Chou-Talalay method (Chou, T. C. Pharmacological Reviews, 2006, 58(3): p. 621-81) with the Cacusyn for Windows software (Biosoft, Cambridge, United Kingdom). As provided therein, “CI” refers to a quantitative measure of the degree of drug interaction as follows: additive effect (CI=1); synergism (CI <1), or antagonism (CI >1). “Dm” refers to the median-effect dose (IC50); “m” refers to a measurement of the sigmoidicity of the dose-effect curve, and also represents the slope of the median-effect plot; and “r” refers to the linear correlation coefficient of the median-effect plot. […]

HSV-2 G strain [1] = test: Dye-uptake PrestoBlue antiviral assay in Vero cells; type: cell-based; settings: 6 day incubation, combination value based on API with bold font
Protocol: We previously reported that the combination of ZA and CG results in a potent antiviral synergy against HSV-2. Fernandez-Romero, J. A., et al., Antimicrobial agents and chemotherapy, 2012. 56(1): p. 358-68. […] Briefly, HSV-2 G strain and different concentrations of each compound or their combinations (based on equipotency IC50 ratios) were pre-incubated at 37° C. and added to Vero cells followed by a 6 day incubation at 37° C., 5% CO2 and 98% humidity. A dye-uptake PrestoBlue assay was performed to test antiviral activity. Relative fluorescent units (RFU) were measured at 570 nm for excitation and 600 nm for emission. The % of virus replication was calculated using the following formula: % Virus replication=[(O.Dcell control−O.Dcompound)/(O.Dcell control−O.Dvirus control)]*100. IC50 values were calculated using a dose-response-inhibition analysis on GraphPad Prism v 5.0 software. As provided therein, ¶ IC50 or % IC50 reduction values are based on API with bold font; NA=Not applicable.

HIV-1 = settings: p24 ELISA and RT; cited from earlier work
HIV-1ADA-M (R5 virus) = test: MAGI assay in TZM-bl cells, anti-HIV activity; type: cell-based; settings: 72 h, FIG. 1A
Protocol: (§1) FIG. 1 includes logarithmic plots which show the percentage of virus replication in the presence of GRFT (nM). Data in FIG. 1 A and FIG. 1 B confirm that GRFT has potent activity against HIV. […] In FIG. 1A, anti-HIV activity was tested in TZM-bl cells using the MAGI assay (R Begay O, et al. AIDS Research and Human Retroviruses, 2011 Sep. 1; 27(9):1019-24) and the laboratory strains HIV-1MN (X4 virus) and HIV-1ADA-M ([…]). In FIG. 1B, anti-HIV activity was tested in PBMC (Trkola A, et al., J Virol. 1999 November; 73(11):8966-74) using the laboratory strains HIV-1NL4-3. In FIG. 1C, anti-HPV activity was evaluated in HeLa cells using a luciferase reporter gene assay (Buck C B, et al. PLoS Pathog. 2006 Jul. 1; 2(7):e69) and testing the antiviral activity against three different HPV PsV types (16, 18 and 45). In FIGS. 1A, 1B, 1C, IC50 values are depicted as a vertical dotted line with the 95% confidence interval and were calculated using a dose-response-inhibition analysis on GraphPad Prism v 5.0 software. All the non-toxic GRFT concentrations were tested in triplicates and are shown with the mean±SD.
(§2) The activity of GRFT against HIV was verified in standard in vitro assays. […]

HIV-1MN (X4 virus) = test: MAGI assay in TZM-bl cells, anti-HIV activity; type: cell-based; settings: 72 h, FIG. 1A
Protocol: as §1, §2

HIV-1NL4-3 = test: Anti-HIV activity in PBMC, p24 ELISA; type: cell-based; settings: activated PBMC, p24 ELISA day 7, FIG. 1B
Protocol: as §1
Anti-HIV activity was also tested in peripheral blood mononucleated cells (PBMC) using the laboratory strains HIV-1NL4-3 according to conventional methods. See Trkola A, et al., J Virol. 1999 November; 73(11):8966-74. […]

HPV16 PsV = test: HPV pseudovirus luciferase assay in HeLa cells; type: cell-based
Protocol: The activity of GRFT against HPV pseudoviruses was also investigated. […] All the non-toxic GRFT concentrations were tested in triplicates. The graphics show the mean±SD.
Medium-treated (virus only) cells were included as a control. […] In order to assay for anti-HPV activity, HeLa cells were treated with varying equipotent doses of GRFT, C or GRFT+C (based on IC50 of each API) at 37° C. and immediately exposed to HPV16 PsV (triplicates). Medium-treated (virus only) cells were included as a control. The luciferase assay was performed 72 h after infection. […] As provided therein, “CI” refers to a quantitative measure of the degree of drug interaction as follows: additive effect (CI=1); synergism (CI <1), or antagonism (CI >1). […]

HPV18 PsV = test: HPV pseudovirus luciferase assay in HeLa cells; type: cell-based; settings: 72 h, FIG. 1C
Protocol: as §1
(§3) The activity of GRFT against HPV pseudoviruses was also investigated. […]

HPV45 PsV = test: HPV pseudovirus luciferase assay in HeLa cells; type: cell-based; settings: 72 h, FIG. 1C
Protocol: as §1, §3

HSV-2 G strain [2] = test: Plaque inhibition assay in Vero cells, inhibition of virus adsorption; type: cell-based; settings: 4° C., plaque forming units, FIG. 2A
HSV-2 G strain [3] = test: Plaque inhibition assay in Vero cells, inhibition of virus entry; type: cell-based; settings: 4° C. then 37° C. 2 h, citric acid buffer, FIG. 2B

Compound: CC(=O)[O-].CC(=O)[O-].[Zn+2] [ZA, zinc acetate]
- IC50 (HIV-192BR014): 48.3 µM
- IC50 (95% confidence interval) (HSV-2 G strain [1]): 58.2 µg/mL

Compound: CC(=O)[O-].CC(=O)[O-].[Cd+2] [cadmium acetate]
- HIV-1 production (HIV-1): inhibited HIV-1 production

Compound: [Cl][Hg][Cl] [mercury chloride]
- HIV-1 production (HIV-1): inhibited HIV-1 production

Compound: [Cl-].[Cl-].[Zn+2] [zinc chloride]
- HIV-1 production (HIV-1): inhibited HIV-1 production

Compound: Griffithsin [GRFT]
- anti-HIV activity in vitro (HIV-1ADA-M (R5 virus)): potent anti-HIV activity
- anti-HIV activity in vitro (HIV-1MN (X4 virus)): potent anti-HIV activity
- anti-HIV activity in vitro (HIV-1NL4-3): potent anti-HIV activity
- in vitro activity against HPV16 PsV (HPV16 PsV; HeLa cells, luciferase assay, 72 h, FIG. 1C): moderate in vitro activity
- IC50 (HPV16 PsV; HeLa, HPV16 PsV, luciferase 72 h, combination value refers to the API in bold font, read-out: Dm, median-effect dose (IC50)): 32.7 µM
- in vitro activity against HPV18 PsV (HPV18 PsV): moderate in vitro activity
- in vitro activity against HPV45 PsV (HPV45 PsV): moderate in vitro activity
- IC50 (HIV-192BR014): 0.0004 µM
- inhibition of virus adsorption (HSV-2 G strain [2]): does not prevent viral adsorption
- inhibition of virus entry (HSV-2 G strain [3]): prevents HSV-2 entry
- IC50 (95% confidence interval) (HSV-2 G strain [1]): 19 µg/mL
